# Where “and” joins values, the source holds several entries; their conditions need not be identical. Equal entries are not always repeated.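 Cells were grown in 96-well plates and exposed to each compound for 48 hours at five concentrations; endpoints were interpolated linearly between bracketing concentrations, or set to the highest concentration if not reached. Here, GI50 denotes the concentration required for 50% inhibition of growth. TGI: concentration producing complete growth inhibition.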
# Experiments:
# Assay in all cases: inhibition of tumour cell growth, NCI panel, 48 h
# ACHN renal = test system: ACHN renal
# OVCAR-8 ovarian = test system: OVCAR-8 ovarian
# OVCAR-5 ovarian = test system: OVCAR-5 ovarian
# NCI-H460 lung = test system: NCI-H460 lung
# OVCAR-4 ovarian = test system: OVCAR-4 ovarian
# SF-268 CNS = test system: SF-268 CNS
# SK-OV-3 ovarian = test system: SK-OV-3 ovarian
# MCF7 breast = test system: MCF7 breast
# HCT-15 colon = test system: HCT-15 colon
# PC-3 prostate = test system: PC-3 prostate
Compound,GI50 (ACHN renal) [nM],TGI (ACHN renal) [µM],GI50 (OVCAR-8 ovarian) [µM],TGI (OVCAR-8 ovarian),GI50 (OVCAR-5 ovarian) [µM],TGI (OVCAR-5 ovarian) [µM],GI50 (NCI-H460 lung) [µM],TGI (NCI-H460 lung) [µM],GI50 (OVCAR-4 ovarian) [µM],TGI (OVCAR-4 ovarian),GI50 (SF-268 CNS) [µM],TGI (SF-268 CNS),GI50 (SK-OV-3 ovarian) [µM],TGI (SK-OV-3 ovarian),GI50 (MCF7 breast) [µM],TGI (MCF7 breast),GI50 (HCT-15 colon),TGI (HCT-15 colon),GI50 (PC-3 prostate) [µM],TGI (PC-3 prostate) [µM]
Cc1ccccc1NC(=O)N/C(N)=N/c1nc(-c2cccc([N+](=O)[O-])c2)cs1,2520,8.46,2.88,15.2 µM,4.34,> 100,3.18,23.1,3.53,> 100 µM,2.67,8.88 µM,2.55,17.8 µM,1.47,> 100 µM,1.56 µM,34.6 µM,2.66,> 100
CC(C)=CCCC(C)c1ccc(C)c2c1OCN(CC1CCNCC1)C2 (stereo not given),15300,30,18.4,34.5 µM,14.3,28.8,5.36,16.6,16,30.7 µM,16.6,33.3 µM,16.7,31.1 µM,6.15,18.7 µM,6.51 µM,21.1 µM,16.5,42.1
O=[N+]([O-])c1cccc(/C=N\NS(=O)(=O)c2ccc(Cl)cc2)c1O,,> 100,,> 100 µM,,> 100,,> 100,,> 100 µM,,> 100 µM,,> 100 µM,,,,> 100 µM,,
CC[C@@H]1OC2(C)CC(S(=O)(=O)c3ccccc3O)CC1O2 (stereo not given in full),,> 100,,> 100 µM,,> 100,,> 100,,> 100 µM,,> 100 µM,,> 100 µM,,,,> 100 µM,,
COC(=O)c1s/c(=N\C(=S)N(C)C)n(-c2ccccc2)c1C(=O)OC,,> 100,,> 100 µM,,> 100,,> 100,,> 100 µM,,> 100 µM,,> 100 µM,,,,> 100 µM,,
Cc1c(NC(=O)C(C)(C)Br)c(=O)oc2c(C)c3occc(=O)c3cc12,,> 100,,> 100 µM,,,,> 100,,> 100 µM,,> 100 µM,,,,,,> 100 µM,,
O=C(Nc1cc(Cl)c(Cl)cc1Cl)C(=O)C1C=CCS1(=O)=O (stereo not given),,> 100,,> 100 µM,,> 100,,> 100,,> 100 µM,,> 100 µM,,> 100 µM,,,,> 100 µM,,
COc1ccc(NC(=O)C(=O)C(C(=O)c2ccccc2)C2OC(=O)c3ccccc32)c([N+](=O)[O-])c1 (stereo not given),,> 100,,> 100 µM,,> 100,,> 100,,> 100 µM,,> 100 µM,,> 100 µM,,,,> 100 µM,,
CC1C[C@@]2(c3ccccc3)C(=O)CCC[C@H]2N1 (stereo not given in full),,> 100,,> 100 µM,,> 100,,> 100,,> 100 µM,,> 100 µM,,> 100 µM,,,,,,
C=C1C(=O)O[C@H]2[C@H]1CC/C(CNC(=O)c1cc3cc(OC)ccc3[nH]1)=C\CC[C@@]1(C)O[C@@H]21,1240,2.84,2.06,7.78 µM,2.19,7.35,5.51,20,2,7.57 µM,1.79,4.47 µM,11.2,23.5 µM,,,0.825 µM,2.23 µM,1.86,4.04
CC1=C(C(=O)Nc2ccccc2C)C(c2ccc(Cl)c(Cl)c2)C(C(=O)Nc2ccccc2C)=C(C)N1,,> 100,,> 100 µM,,53.5,,36.4,,> 100 µM,,47.3 µM,,81.4 µM,,,,47.2 µM,,
COc1cc(/C=C(\C#N)C(=O)c2ccccc2)ccc1OCc1ccccc1,,> 100,,> 100 µM,,> 100,,,,> 100 µM,,,,> 100 µM,,,,> 100 µM,,
CC(C)CS(=O)(=O)/C(=C(\c1ccc(Br)cc1)S(=O)(=O)CC(C)C)c1ccc(Br)cc1,,> 100,,> 100 µM,,> 100,,> 100,,> 100 µM,,> 100 µM,,,,,,> 100 µM,,
NC(=O)C(=Cc1ccc(C(O)P(=O)(O)O)cc1)C(N)=O (stereo not given),,> 100,,> 100 µM,,> 100,,> 100,,> 100 µM,,,,> 100 µM,,,,> 100 µM,,
Cc1cc(Cl)ccc1NC(=O)CCCC(=O)C1CCCC1=O (stereo not given),,> 100,,> 100 µM,,> 100,,> 100,,> 100 µM,,> 100 µM,,> 100 µM,,,,> 100 µM,,
CCOC(=O)NC(=O)c1cn(CC(=O)NCC(=O)NCC(=O)NCCCN2CCN(CCCNC(=O)CNC(=O)CNC(=O)Cn3cc(C(=O)NC(=O)OCC)c(=O)[nH]c3=O)CC2)c(=O)[nH]c1=O,,> 100,,> 100 µM,,> 100,,> 100,,,,> 100 µM,,> 100 µM,,,,> 100 µM,,
CCCCCCCCC[C@@H]1CC(=O)OCC2OC(O[C@H](CCCCCCCCC)CC(=O)OCC3OC(O[C@H](CCCCCCCCC)CC(=O)OCC4OC(O1)C(O)C(O)C4O)C(O)C(O)C3O)C(O)C(O)C2O (stereo not given in full),,26.1,,28.7 µM,,22.5,,17.3,,32.3 µM,,7.74 µM,,26.5 µM,,,,21 µM,,
Cc1[nH]c2ccccc2c1C1Cc2ccccc2N1C(=O)/C=C\C(=O)O (stereo not given),,> 100,,,,> 100,,> 100,,> 100 µM,,68.4 µM,,> 100 µM,,,,> 100 µM,,
COc1ccc([N+]2=NC(c3ccc([N+](=O)[O-])cc3)=NN(c3ccccc3)C2)cc1,,> 100,,> 100 µM,,> 100,,> 100,,75.5 µM and > 100 µM,,> 100 µM,,,,,,> 100 µM,,
Cc1c[nH]c2c(O)cc3c(c12)[C@H](CCl)CN3C(=O)c1cc2cc(NC(=O)Nc3ccc4[nH]c(C(=O)N5C[C@@H](CCl)c6c5cc(O)c5[nH]cc(C)c65)cc4c3)ccc2[nH]1,0.0841,,,16.3 µM and 2e-06 µg/mL and 0.000888 µg/mL,,,,,,48 µM,,58.9 nM and 82.3 µM and 0.00887 µg/mL,,26.7 nM and > 100 µM and 8.88 µg/mL,,21.9 µM and 0.00887 µg/mL and 8.88 µg/mL,47.9 µM and 0.000888 µg/mL,> 100 µM and 0.00213 µg/mL,0.023,

# Source: PubChem BioAssay (NCI)
